Experimental data: patent publication US20050048001A1, “Pharmaceutical formulations of salmeterol” (priority 1999, published 2005)

Experiment: Solubility of forms of salmeterol in ethanol/HFA mixtures
Format: physicochemical
Conditions: mixtures of ethanol/HFA134a and ethanol/HFA227; relative to racemic salmeterol xinafoate
Source text: FIG. 6: Chart to show the solubility of various forms of salmeterol in a number of different solvents.

SMILES | solubility
O=C(O)c1ccc2ccccc2c1O.OCc1cc(C(O)CNCCCCCCOCCCCc2ccccc2)ccc1O (centres unmarked) [R-salmeterol xinafoate] | significantly more soluble
OCc1cc(C(O)CNCCCCCCOCCCCc2ccccc2)ccc1O (stereo not drawn) [salmeterol base, 4-hydroxy-α^1-[[[6-(4-phenylbutoxy)hexyl]amino]methyl]-1,3-benzenedimethanol] | substantially more soluble
